According to US20250144050A1, “AMINOTHIOL-CONJUGATES, COMPOSITIONS, AND METHODS OF USE THEREOF” (THE BURLINGTON HC RESEARCH GROUP, INC., priority 2021, published 2025):
Where two headings read alike, the source gives them in different places.

Legend:
Assay type in all cases: cell-based
[1] = test system: PPM-Mill malignant mesothelioma cells
Experimental: Trypan Blue exclusion was applied as a complementary confirmation probe for cell death.
Statistical comparisons of differences in individual dose-response metrics between individual/paired drug treatments and various cell lines were conducted using the Student's t-test, with P-values <0.05 considered significant.
Relative cell growth inhibition values for differing levels each drug alone and in combination were input into SynergyFinder to generated dose-response curves for each drug alone, to produce a dose-response matrix, to visualize the distribution of areas of differing degrees of synergism in a 2-dimension heatmap and 3-dimension volcano plot, and to calculate average and maximum synergy scores in selected human cancer cell lines. […] Synergy scores <10 means that the interaction between two drugs was likely to be antagonistic; scores from −10 to 10 means the interaction between two drugs was likely to be additive; and scores >10 means the interaction between two drugs was likely to be synergistic.

[2] = test system: normal human mammary epithelial cells (NHMECs); experiment: Growth of NHMEC strains after 48-hour exposure; conditions: for average effect per unit dose (% growth÷exposure concentration) / average effect per unit dose: NHMECs; for growth relative to control cells: 48-hour; for cell growth as % of control cell values: highest drug level 500 μM
From the text: Normal human mammary epithelial cell (NHMEC) strains used to assess potential cytotoxicity of 4SP65/1LP65 were established from reduction mammoplasty tissue from a healthy donor (#M99005 or ‘Strain-1’) (Keshava et al., “Induction of CYP1A1 and CYP1B1 and Formation of Carcinogen-DNA Adducts in Normal Human Mammary Epithelial Cells Treated with Benzo[a]pyrene,” Cancer Lett. 221 (2): 213-24 (2005), which is hereby incorporated by reference in its entirety) or purchased from ATCC (Manassas, VA, USA; batch #70043304 or ‘Strain-2’) or Cell Applications (San Diego, CA, USA; lot #1669 or ‘Strain-3’). Human cancer cell lines including HCC38 (Cat #CRL2314™), MDA-MB-231 (Cat #HTB-26™), A549/ATCC (Cat #CL-185™), National Cancer Institute (NCI)-H460 (Cat #HTB177™), NCI-H1437 (Cat #CRL-5872™), NCI-H1975 (Cat #CRL-5908™), DU145 (Cat #HTB-81™), LNCaP (Cat #CRL-1740™), PC3 (Cat #CRL-1435™), PANC1 (Cat #CRL-1469™), SKOV3 (Cat #HTB-75™), and HL60 (Cat #CCL-240™), which were free of mycoplasma, were purchased from ATCC. HMESO1 (CLS Cell Lines Service GmbH, Cat #BHC11100791), PPMMill, and TOV21G cells (ATTC Cat #CRL-11730), obtained from Dr. Brian Cunniff, were verified to be Mycoplasma negative using the LookOutR Mycoplasma PCR Detection Kit (Sigma-Aldrich, Cat #MP0035) and to match previously annotated DNA fingerprints by the Vermont Integrative Genomics Resource DNA Analysis Facility.
To assess the effects of 4SP65 on the growth of normal epithelium, experiments were performed using NHMEC strains from three donors (Keshava et al., “Induction of CYP1A1 and CYP1B1 and Formation of Carcinogen-DNA Adducts in Normal Human Mammary Epithelial Cells Treated with Benzo[a]pyrene,” Cancer Lett. 221 (2): 213-24 (2005), which is hereby incorporated by reference in its entirety). Strain-1 NHMECs were plated at 5,000 cells/well in 24-well dishes and allowed to reach 50% confluence before treatment with 0-300 μM 4SP65 for 48 hours. Cell viability was determined using a hemocytometer and trypan blue exclusion assay. Two other NHMEC strains, exposed to 0-150 μM 4SP65 or 0-500 μM 1LP65, were handled in the same fashion except that viability of cells in 96-well plates was determined using CyQUANT dye.

[3] = test system: Normal human mammary epithelial cells (M99005); experiment: Trypan Blue cell count, normal cells, 48 hours
Experimental: For comparison purposes, the growth inhibitory does of 4SP65 required to reduce the growth of normal human mammary epithelial cells by 50% was above 300 micromolar. The exact value has not been determined as of yet due to the fact that 4SP65 forms a hydrogel in medium when present at a concentration that exceeds 300 micromolar.
Normal human mammary epithelial cells were grown as described in Example 1, with the exception that the growth medium was as MEBM (purchased from American Type Tissue Culture Collection). When the cells had reach 50 to 60%, the growth medium was removed and medium supplemented with 0 to 300 microM 4SP65 was added to each well containing cells. At 48 hours, the cells were removed by trypsinization stained with Trypan Blue, and counted using a hemocytometer. […] The finding of a biphasic growth inhibition curve for WR-1065 has been reported previously (Calabro-Jones et al. “The limits to radioprotection of Chinese hamster V79 cells by WR-1065 under aerobic conditions.” Radiat Res. 149:550-559 (1998), which is hereby incorporated by reference in its entirety). Additional experiments now have been completed and are described infra).

HPM3 cells = experiment: Dose-response metrics in immortalized, non-tumorigenic cells
Experimental: (§1) To determine potential cytostatic or cytocidal effects of BRG prodrugs in immortalized, non-tumorigenic cells, Vero, HEK-293t, LP9, and HPM3 cells were exposed to 4SP65 while only Vero cells also were treated with 1LP65. […] Comparisons across other dose-response metrics could not be made because such levels of effects were not induced in NHMECs exposed to 4SP65. […] Since cytostatic and cytolytic effects at the TGI and LC50/99 levels were induced in Vero cells exposed to 1LP65 but not in NHMECs, there is a significant difference in the effects of 1LP65 in Vero cells compared to NHMECs, but p values based upon t-test evaluations cannot be defined due to lack of numerical data.

PC3 cells = experiment: CyQUANT cell viability assay, 48-hour exposure; conditions: Homo sapiens, PC-3
Experimental: After drug treatments, fluorescence readings from 96-well plates were obtained using the CyQUANT dye and compared to standard curves for each cell line to determine cell viability. […] Trypan blue exclusion was used to estimate cell numbers in a few pilot experiments and was thereafter applied to confirm cell death.
A series of experiments was conducted to assess the relative efficacy of 4SP65, 1LP65, and amifostine as single agents in the same human cancer cell lines. First, the effectiveness of 4SP65 was tested against 15 cancer cell lines derived from seven tissues. […]
Trans. […] Using cell numbers based on fluorescence measurements and standard curves [time zero, (Tz), control growth, (C), and test growth in the presence of drug at five or more concentration levels (Ti)], the percentage growth was calculated at each drug concentration level. The percentage of growth inhibition was calculated as follows:
The LC50/99 was calculated using Equation 2=−50 and Eq. 2=−99, respectively. […] For NHMECs, the relationships between drug exposure levels and fluorescence units were used to define dose-response metrics. The selectivity index (SI) values for individual drug treatments were calculated as IC50 levels in NHMECs divided by the IC50 values in cancer cell lines.

[4] = Dose-response metrics in immortalized, non-tumorigenic cells; conditions: African green monkey, Vero cells (immortalized, non-tumorigenic); read-out: LC50 (the source's name)
Experimental: as §1

[5] = PPM-Mill, each drug alone, 48 h

4-star PEG-S-S-WR1065 [4SP65]
CC50 [1]: 16.2 ± 3.2 µM
GI50 [1, 5]: 8.4 ± 1.5 µM
IC50 [1, 5]: 10 ± 1.9 µM
LC99 [1, 5]: 17.6 ± 3.5 µM
TGI [1, 5]: 14.1 ± 3.3 µM
average effect per unit dose (% growth÷exposure concentration) ([2]; 9 μM): 8.7
average effect per unit dose (% growth÷exposure concentration) ([2]; 30 μM): 1.70
average effect per unit dose (% growth÷exposure concentration) ([2]; 90 μM): 0.23
average effect per unit dose (% growth÷exposure concentration) ([2]; 150 μM): 0.058
growth compared to sham-exposed control cells ([2]; Strain-1, 5 μM, 48 hours): 336%
growth compared to sham-exposed control cells ([2]; Strain-1, 15 μM, 48 hours): 286%
growth as % of control cell growth ([2]; Strain-1, 50 μM, 48 hours): 68%
growth pattern ([2]; Strain-1, 150 μM, 48 hours): re-established a predominant pattern of growth enhancement
IC50 ([2]; Strain-1 and Strain-2 NHMECs): could not be calculated or predicted
GI50 ([2]; Strain-1 and Strain-2 of NHMECs): could not be calculated or predicted
growth relative to control cells ([2]; Strain-2 and Strain-3, 3 μM): 162%±7%
growth relative to control cells ([2]; Strain-2 and Strain-3, 9 μM): 78%±12%
growth relative to control cells ([2]; Strain-2 and Strain-3, 30 μM): 52%±8%
growth relative to control cells ([2]; Strain-2 and Strain-3, 50 μM (so in the source)): 21%±4%
growth relative to control cells ([2]; Strain-2 and Strain-3, 150 μM): 8.7%±2%
IC50 ([2]; Strain-3 cells, 48 hours, read-out: IC50): 76 ± 14 µM
GI50 ([2]; strain 3 of NHMECs, read-out: GI50): 41.4 ± 6.2 µM
inhibition of cell growth ([3]; 0 to 300 microM except 100 microM, 48 hours): No inhibition of cell growth was observed
EC50 ([3]; normal human mammary epithelial cells, read-out: growth inhibitory dose required to reduce growth by 50%): > 300 µM
GI50 (HPM3 cells): ~10 µM

COCCOCCOCCOCCOCCOCCSSCCNCCCN [1LP65, m-PEG6-S-S-WR1065]
GI50 (PC3 cells): 22.9 µM
cytotoxicity in NHMECs ([2]; 500 μM): not cytotoxic
IC50 ([2]; Homo sapiens, Epithelial cell, 48 h, Strain-2 cells, 48 hours, read-out: IC50): > 500 µM
IC50 ([2]; Homo sapiens, Epithelial cell, 48 h, Strain-3 cells, 48 hours, read-out: IC50): 210 µM
IC50 ([2]; Homo sapiens, Epithelial cell, Strain-2 and Strain-3, read-out: IC50, averaging over strains): > 355 µM
average effect per unit dose (% growth÷exposure concentration) ([2]; 90 μM): 2.9
average effect per unit dose (% growth÷exposure concentration) ([2]; 150 μM): 0.31
average effect per unit dose ([2]; 300 μM): 0.06
average effect per unit dose ([2]; 500 μM): 0.03
cell growth as % of control cell values ([2]; Strain-2, 48 hours): 19.5%
cell growth as % of control cell values ([2]; Strain-3, 48 hours): 12.5%
CC50 [4]: 129 ± 3.4 µM
